Assay results taken from PubChem BioAssay (NCI).
Several values for one entry are separate records, joined by “and”; a condition that tells them apart may be missing. Identical values can stand only once.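 Each compound was tested at five concentrations against cells in 96-well plates for 48 hours. Abbreviation: GI50, concentration required for 50% inhibition of growth. At the TGI there is no net growth.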

Legend:
Test in all cases: NCI tumour cell line growth inhibition, 48 h
MCF7 breast = system: MCF7 breast
MDA-MB-231 breast = system: MDA-MB-231 breast
MDA-MB-435 = system: MDA-MB-435
NCI/ADR-RES ovarian = system: NCI/ADR-RES ovarian
MDA-N = system: MDA-N
HOP-18 NSCLC = system: HOP-18 NSCLC
SNB-78 CNS = system: SNB-78 CNS
DMS 114 small cell lung = system: DMS 114 small cell lung

SMILES	GI50 (MCF7 breast)	TGI (MCF7 breast)	GI50 (MDA-MB-231 breast)	TGI (MDA-MB-231 breast)	GI50 (MDA-MB-435)	TGI (MDA-MB-435)	GI50 (NCI/ADR-RES ovarian)	TGI (NCI/ADR-RES ovarian)	TGI (MDA-N) [µM]	TGI (HOP-18 NSCLC) [µM]	TGI (SNB-78 CNS) [µM]	TGI (DMS 114 small cell lung) [µM]	GI50 (HOP-18 NSCLC) [µM]
N#CC(C#N)=C1CCOc2ccc(F)cc21	11.3 µM	23.3 µM	13 µM	25.7 µM	> 100 µM	> 100 µM	16.1 µM	29.6 µM					
C=CC(=O)N1C[C@@H]2CCOc3c(Cl)c(-c4c(O)cccc4F)c(F)c4ncnc(c34)N2C[C@H]1C	14.1 µM	34.5 µM	11.5 µM	27.7 µM	11.8 µM	29.6 µM	17.4 µM	62.6 µM					
CC1=C(C)C(=O)O[C@@H]([C@](C)(O)[C@]2(O)CC[C@@]3(O)[C@@H]4C[C@H](O)[C@]5(O)[C@@H](O)C=CC(=O)[C@]5(C)[C@H]4CC[C@]23C)C1		> 100 µM		> 100 µM		> 100 µM			> 100				
C#Cc1cccc(Nc2ncnc3ccc(OCCCCNCCS(C)(=O)=O)cc23)c1	9.5 µM	> 25 µM	5.11 µM	11.7 µM	5.37 µM	12.5 µM	11.4 µM	> 25 µM					
COc1cc(N2C(=O)[C@H](c3ccccc3)C2c2ccc(SC)cc2)cc(OC)c1OC (stereo partly specified)	0.0352 µM	> 100 µM	0.0321 µM	15.2 µM			0.0335 µM	> 100 µM					
O=C(NCCCl)Nc1cccnc1		> 100 µM		33.3 µM		> 100 µM		47.7 µM	67.9				
CC(C)(C)c1cc(NC(=O)Nc2ccc(-c3cn4c(n3)sc3cc(OCCN5CCOCC5)ccc34)cc2)no1	2.04 µM and 0.357 µM and 1.41 µM	23.3 µM and 13.3 µM and > 10 µM	6.34 µM and 2.36 µM and 7.92 µM	21 µM and 16.3 µM and > 10 µM	6.85 µM and 4.32 µM and 7.3 µM	27.7 µM and 21.2 µM and > 10 µM	2.81 µM and 4.61 µM and 7.95 µM	24.7 µM and 19.2 µM and > 10 µM					
COc1cc(CC2c3cc(OC)c(OC)cc3CCN2C)ccc1O (stereo unspecified)										> 100	> 100		
O=C(Cc1nc2ccccc2o1)C(=O)Nc1cccc(Cl)c1										> 100	> 100	> 100	
CCOC(=O)C1=C(C)NC(=O)NC1CN1C(=O)c2ccccc2C1=O (stereo unspecified)	> 100 µM	> 100 µM	> 100 µM	> 100 µM	> 100 µM	> 100 µM	> 100 µM	> 100 µM					
CSc1nc2nn(Cc3ccccc3)cc2c(=O)[nH]1										> 100	> 100	> 100	
CC(C)(C)c1cc(/C=N/NC(=O)c2ccccc2NC(=O)c2cccs2)c(O)c(C(C)(C)C)c1	0.485 µM	> 100 µM	1.11 µM	19.1 µM	2.46 µM	77.7 µM	0.606 µM	15.9 µM					
COc1ccc(CCN(CC(=O)N(CC(N)=O)C2CCC[C@@H]2OCc2ccccc2)C(=O)CN(C(=O)CN(CCc2ccc(Cl)cc2)C(=O)CN(C(=O)CN(C)Cc2ccccc2F)[C@H](C)C2CCCCC2)[C@H](C)C2CCCCC2)cc1OC (stereo partly specified)	1.17 µM	> 50 µM	2.89 µM	> 50 µM	1.58 µM	> 50 µM	> 50 µM	> 50 µM					
CC(C)(C)c1cc(CCCCCCCC2(CCCCCCCc3cc(C(C)(C)C)cc(C(C)(C)C)c3)OC(COCCOCCCCCC#N)C(COCCOCCCCCC#N)O2)cc(C(C)(C)C)c1 (stereo unspecified)										> 100	> 100	> 100	
COC(=O)c1ccc(/C=C(\c2ccc([N+](=O)[O-])o2)S(=O)(=O)c2ccc(NC(C)=O)cc2)o1		29.3 µM		5.77 µM		12.8 µM		30.5 µM					
C=C1C(=O)O[C@H]2[C@H](OC(C)=O)[C@@H](C)CCCC3(C)OC3CCC3(CO3)[C@H](O)C[C@@H]12 (stereo partly specified)	5.02 µM	28.7 µM	8.22 µM	23.9 µM	9.24 µM	28.6 µM							
CC1(C)N=C(N)N=C(N)N1c1ccc(OCCCNC(=O)Nc2cccc(S(=O)(=O)F)c2)c(Cl)c1	3.82 µM	> 100 µM	7.25 µM	> 100 µM	2.14 µM	> 100 µM	> 100 µM	> 100 µM					
CCN(CC)CC(C)C(=O)/C=C/c1ccc(C)cc1 (stereo unspecified)										22.3	23.1	3.2	
Cc1cnc2oc3ccc(O)cc3c2c1-c1ccccc1	41 µM	> 100 µM	3.54 µM	> 100 µM	> 100 µM	> 100 µM	28.4 µM	> 100 µM					
O=C(c1ccc(C(F)(F)F)c(Cl)c1)N(Cc1ccc(Cl)cc1)c1ccc(-c2cc(C(F)(F)F)[nH]n2)c(O)c1	1.12 µM	3.85 µM	0.964 µM	2.21 µM	1.25 µM	3.66 µM	1.11 µM	2.99 µM					
O=C1C(=C([O-])c2ccccc2)C(=O)c2ccccc21.O=C1C(=C([O-])c2ccccc2)C(=O)c2ccccc21.[Mn+2]										> 100			35.4
COc1cc(/C=C/c2cc(/C=C/c3ccc(O)c(OC)c3)n(C(=O)Nc3ccccc3Cl)n2)ccc1O	0.29 µM	1.4 µM	0.708 µM	11.4 µM	0.0738 µM	0.236 µM	0.247 µM	7.91 µM					
CC1(C)N=C(N)N=C(N)N1c1ccc(Cl)cc1	4.88 µM	> 100 µM	> 100 µM	> 100 µM	1.18 µM	> 100 µM	> 100 µM	> 100 µM					
Oc1c(Cl)cc(Cl)cc1/C=N/Nc1nnc(N/N=C/c2cc(Cl)cc(Cl)c2O)c2ccccc12	0.482 µM	> 100 µM	0.479 µM	> 100 µM	0.484 µM	> 30.9 µM	0.363 µM	> 100 µM					
COC(=O)[C@@]1(C)C(=O)CC[C@@H]1C=O											> 100	> 100	
COc1cccc(-c2cc(=O)c3cc(N4CCOCC4)ccc3[nH]2)c1	0.0275 µM	20.1 µM				0.0256 µM		0.271 µM and 0.751 µM	0.0278				
Cc1ccc(C=C2C(Cl)=C(Cl)C(Cl)=C2Cl)cc1	0.39 µM	2.37 µM	1.22 µM	4.76 µM	0.42 µM	1.6 µM	0.324 µM	1.52 µM					
C#CC(=O)Nc1cccc2c1cc(C)n2-c1nc2c(c(NCc3ccccc3)n1)CCCC2	0.226 µM	1.23 µM	0.0578 µM	0.261 µM	0.463 µM	1.66 µM	0.127 µM	0.645 µM					

SMILES	GI50 (MCF7 breast)	TGI (MCF7 breast)	GI50 (MDA-MB-231 breast)	TGI (MDA-MB-231 breast)	GI50 (MDA-MB-435)	TGI (MDA-MB-435)	GI50 (NCI/ADR-RES ovarian)	TGI (NCI/ADR-RES ovarian)	TGI (MDA-N) [µM]	TGI (HOP-18 NSCLC) [µM]	TGI (SNB-78 CNS) [µM]	TGI (DMS 114 small cell lung) [µM]	GI50 (HOP-18 NSCLC) [µM]
O=C(O)c1ccc(C(O)(c2ccccc2)c2ccccc2)cc1		> 100 µM		> 100 µM		> 100 µM		> 100 µM	> 100				
CN(C)CCCSc1ccccc1NC1=C(Cl)C(=O)C(Nc2ccccc2SCCCN(C)C)=C(Cl)C1=O	1.65 µM	3.94 µM	1.78 µM	3.38 µM	2.06 µM	4.52 µM	3.21 µM	18.7 µM					
Cc1cc(N2CCCCC2)nc(NC2CCCC(Nc3ccnc4cc(Cl)ccc34)C2)n1 (stereo unspecified)					1.32 µM	2.73 µM							
COc1cc(-c2nc3sc(C)cn3c2/C=C2\C(=O)Nc3ccccc32)c(Br)c(OC)c1OC	5.81 µM	43.3 µM	31.6 µM	97 µM	4.88 µM	23.2 µM	28.3 µM	82.5 µM					
Cc1ccc2cccc(OC(=O)Nc3cccc(C(F)(F)F)c3)c2n1	2.26 µM	8.05 µM	2.37 µM	7.26 µM	2.91 µM	10.9 µM	3.96 µM	33.3 µM					
Oc1ccc2c3c1OC1c4[nH]ncc4C[C@H]4[C@@H](C2)N(CC2CC2)CC[C@]314 (stereo partly specified)		> 100 µM		> 100 µM		> 100 µM		> 100 µM	> 100				
CC(C)(C)CC(C)(C)c1ccc(O)c(Cc2ccc(Cl)cc2Cl)c1	1.52 µM	2.85 µM	1.56 µM	2.92 µM	1.65 µM	3.01 µM	1.65 µM	3.05 µM					
COc1ccc(/C=C2\COc3ccc(O)c(O)c3C2=O)c(OC)c1OC	2.65 µM	86.5 µM	2.22 µM	7.43 µM	2.21 µM	6.57 µM							
C[C@@H](NS(=O)(=O)c1ccc(NC(=O)c2ccccc2)cc1)C(=O)O										> 100			
COC(=O)c1cc2oc(/C=C3/SC(=S)N(N)C3=O)cc2n1Cc1ccccc1	1.5 µM	6.93 µM	8.66 µM	26 µM	6.65 µM	> 41.5 µM	4.61 µM	26.9 µM					
COc1ccc(C(=NN=C(N)N)c2ccc(OC)cc2)cc1	2.89 µM	12.4 µM	3.88 µM	17.1 µM	1.78 µM	4.33 µM	21.1 µM	75.6 µM					
O=C(O)c1cc(=O)cc(C(=O)O)o1	> 100 µM	> 100 µM			> 100 µM	> 100 µM	> 100 µM	> 100 µM					
Cn1cc(C2=C(c3cn(-c4ccccc4)c4ccccc34)C(=O)NC2=O)c2ccccc21	9.3 µM	> 25 µM	> 23.3 µM	> 25 µM	6.01 µM	> 20.5 µM	11.2 µM	> 25 µM					
CC1=NN(C(=O)Nc2ccc(Cl)cc2)C(=O)C2CCC(=O)N12 (stereo unspecified)											> 100	> 100	
Cc1ccc(/C=C(\NC(=O)c2ccccc2)c2nc3ccccc3[nH]2)cc1										> 100		> 100	
COc1c(/C=C/C=O)cc2c(c1OC)OCO2		> 100 µM		80 µM		> 100 µM		> 100 µM	94				
COc1cc(CNCCN2C(=O)c3ccc4c5c(ccc(c35)C2=O)C(=O)N(CCNCc2cc(OC)c(OC)c(OC)c2)C4=O)cc(OC)c1OC	0.262 µM	1.05 µM	0.181 µM	0.605 µM			2.05 µM	50 µM					
N/N=C(\c1nc2ccc([N+](=O)[O-])cc2[nH]c1=O)C(O)c1ccc(Cl)c(Cl)c1 (stereo unspecified)		> 100 µM		> 100 µM		> 100 µM		> 100 µM	> 100				
O=C1CC(c2ccccc2)Cc2nc3ccc(Br)cc3cc21 (stereo unspecified)	2.75 µM	> 100 µM	0.65 µM	96.3 µM	0.0328 µM	0.126 µM	0.0748 µM	9.03 µM					
CC(C)[C@@](O)(c1ccc2cc(OC(F)F)c(OC(F)F)cc2c1)c1cn[nH]n1	16.6 µM	37.7 µM	18.5 µM	39.1 µM	16.4 µM	33.3 µM	18.5 µM	50.9 µM					
O=Nc1c(-c2c(O)[nH]c3cc(Br)ccc23)[nH]c2ccccc12	1.83 µM	7.79 µM	1.82 µM	5.31 µM	1.61 µM	3.01 µM	1.42 µM	4.48 µM					
CCCCNS(=O)(=O)c1n[nH]c(=O)[nH]c1=O		> 100 µM		> 100 µM		> 100 µM		> 100 µM	> 100				
O=c1cnnc(N/N=C/c2ccccc2O)[nH]1	0.0396 µM		4.37 µM	> 100 µM	3.54 µM	> 100 µM	1.28 µM	> 64.5 µM					
O=C(C=P(c1ccccc1)(c1ccccc1)c1ccccc1)CCl	0.403 µM	1.93 µM	1.22 µM	3.03 µM	0.894 µM	2.34 µM	1.86 µM	10.5 µM					
O=c1c2ccccc2c(/C=N\NC2=NCCN2)c2oc3ccccc3n12	18.5 µM	40.8 µM	16.7 µM	35 µM	38 µM	> 100 µM	> 100 µM	> 100 µM					
COC(=O)[C@]12CC[C@@H](C)[C@H](C)[C@@H]1C1=CC[C@@H]3[C@@]4(C)C[C@@H](OC(=O)/C=C/c5ccccc5)[C@H](O)[C@@](C)(CO)[C@@H]4[C@H](O)C[C@@]3(C)[C@]1(C)CC2	3.12 µM	11.5 µM	1.95 µM	4.17 µM	2.44 µM	6.47 µM	2.92 µM	10.9 µM					
CCC1C(C(=O)Nc2ccccc2C)=C(C)NC(C)=C1c1ccccc1C (stereo unspecified)										> 100	> 100		
